Results: ChEMBL document CHEMBL1201862, “PubChem BioAssay data set” (2004)
Active and inactive are the calls of the source.

Legend:
[1] = NIH-3T3 fibroblast cytotoxicity, dose response, cytotoxicity control, cell-based, fluorescence, Alamar Blue, secondary assay (AID 2327); format: functional;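 further: NIH-3T3 mouse fibroblasts cultured with fluconazole at 8 µg/mL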
BJ [2] = assay: BJ-TERT fibroblast viability loss – cell-based, RAS-independent, luminescence, dose response (AID 1933); format: functional; conditions: Homo sapiens
BJ [3] = assay: cells; format: functional, cell-based; conditions: Homo sapiens
[4] = fluconazole-exposed Candida albicans growth modulators – fluorescence, retest, confirmation (AID 2467); format: functional, cell-based
BJ [5] = assay: BJ-TERT-LT-ST fibroblast viability loss – cell-based, RAS-independent, luminescence, dose response (AID 1935); format: functional; conditions: Homo sapiens;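 further: BJ fibroblasts immortalized with TERT plus LT and ST oncogenes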
[6] = DRD fibroblast viability loss – cell-based, non-viral oncogenic, luminescence, dose response (AID 1934); format: functional; conditions: Homo sapiens
[7] = biological target: T1, Ubiquitin-conjugating enzyme E2 N (Homo sapiens, UniProt P61088); format: functional;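 further: Dose-response confirmation in a TR-FRET assay detecting UBC13-driven polyubiquitin chain formation, inhibition measured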
T1 sequence (P61088 whole entry): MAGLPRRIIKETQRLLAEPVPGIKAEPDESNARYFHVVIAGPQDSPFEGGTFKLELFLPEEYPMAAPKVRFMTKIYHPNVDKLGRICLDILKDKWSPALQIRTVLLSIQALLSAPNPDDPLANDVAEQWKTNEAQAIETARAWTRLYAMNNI

Mu-type opioid receptor = Mu-type opioid receptor (Homo sapiens, UniProt P35372); format: functional, cell-based;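 further: U2OS cells with beta-arrestin recruitment to OPRM1 by beta-gal complementation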
Mu-type opioid receptor, sequence (P35372 whole entry): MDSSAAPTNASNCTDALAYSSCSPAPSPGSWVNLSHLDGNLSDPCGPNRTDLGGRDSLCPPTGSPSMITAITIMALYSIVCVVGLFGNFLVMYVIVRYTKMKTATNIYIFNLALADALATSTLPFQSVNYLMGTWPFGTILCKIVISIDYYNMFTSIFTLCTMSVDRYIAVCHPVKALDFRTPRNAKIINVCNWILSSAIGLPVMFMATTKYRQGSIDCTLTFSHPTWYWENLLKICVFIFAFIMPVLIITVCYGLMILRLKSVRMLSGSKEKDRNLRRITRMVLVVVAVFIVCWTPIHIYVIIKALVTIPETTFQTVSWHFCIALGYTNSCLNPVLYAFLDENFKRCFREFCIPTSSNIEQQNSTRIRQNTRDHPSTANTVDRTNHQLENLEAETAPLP

[8] = biological target: 5-hydroxytryptamine receptor 2A (Mus musculus, UniProt P35363); format: functional, cell-based;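 further: CHO-K1 cells with tagged receptor and beta-arrestin; agonist potency measured as compound-induced activation of the receptor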
5-hydroxytryptamine receptor 2A, sequence (P35363 whole entry): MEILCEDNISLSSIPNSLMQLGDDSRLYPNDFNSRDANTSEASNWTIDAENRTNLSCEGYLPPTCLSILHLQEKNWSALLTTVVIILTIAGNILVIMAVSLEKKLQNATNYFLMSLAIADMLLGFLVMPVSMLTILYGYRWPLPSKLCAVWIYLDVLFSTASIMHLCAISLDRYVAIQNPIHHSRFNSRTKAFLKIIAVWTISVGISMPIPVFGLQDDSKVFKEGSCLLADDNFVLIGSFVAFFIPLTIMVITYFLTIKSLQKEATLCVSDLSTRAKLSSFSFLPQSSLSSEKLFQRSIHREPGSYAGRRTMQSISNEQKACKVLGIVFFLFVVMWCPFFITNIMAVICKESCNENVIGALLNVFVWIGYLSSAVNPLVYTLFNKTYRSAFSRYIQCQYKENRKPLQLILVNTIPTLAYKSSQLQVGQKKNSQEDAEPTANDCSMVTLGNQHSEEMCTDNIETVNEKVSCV

[9] = biological target: Voltage-gated inwardly rectifying potassium channel KCNH2 (Homo sapiens, UniProt Q12809); conditions: Potency;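 further: confirmatory quantitative high-throughput screen measuring inhibition of hERG channel activity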
Voltage-gated inwardly rectifying potassium channel KCNH2, sequence (Q12809 whole entry): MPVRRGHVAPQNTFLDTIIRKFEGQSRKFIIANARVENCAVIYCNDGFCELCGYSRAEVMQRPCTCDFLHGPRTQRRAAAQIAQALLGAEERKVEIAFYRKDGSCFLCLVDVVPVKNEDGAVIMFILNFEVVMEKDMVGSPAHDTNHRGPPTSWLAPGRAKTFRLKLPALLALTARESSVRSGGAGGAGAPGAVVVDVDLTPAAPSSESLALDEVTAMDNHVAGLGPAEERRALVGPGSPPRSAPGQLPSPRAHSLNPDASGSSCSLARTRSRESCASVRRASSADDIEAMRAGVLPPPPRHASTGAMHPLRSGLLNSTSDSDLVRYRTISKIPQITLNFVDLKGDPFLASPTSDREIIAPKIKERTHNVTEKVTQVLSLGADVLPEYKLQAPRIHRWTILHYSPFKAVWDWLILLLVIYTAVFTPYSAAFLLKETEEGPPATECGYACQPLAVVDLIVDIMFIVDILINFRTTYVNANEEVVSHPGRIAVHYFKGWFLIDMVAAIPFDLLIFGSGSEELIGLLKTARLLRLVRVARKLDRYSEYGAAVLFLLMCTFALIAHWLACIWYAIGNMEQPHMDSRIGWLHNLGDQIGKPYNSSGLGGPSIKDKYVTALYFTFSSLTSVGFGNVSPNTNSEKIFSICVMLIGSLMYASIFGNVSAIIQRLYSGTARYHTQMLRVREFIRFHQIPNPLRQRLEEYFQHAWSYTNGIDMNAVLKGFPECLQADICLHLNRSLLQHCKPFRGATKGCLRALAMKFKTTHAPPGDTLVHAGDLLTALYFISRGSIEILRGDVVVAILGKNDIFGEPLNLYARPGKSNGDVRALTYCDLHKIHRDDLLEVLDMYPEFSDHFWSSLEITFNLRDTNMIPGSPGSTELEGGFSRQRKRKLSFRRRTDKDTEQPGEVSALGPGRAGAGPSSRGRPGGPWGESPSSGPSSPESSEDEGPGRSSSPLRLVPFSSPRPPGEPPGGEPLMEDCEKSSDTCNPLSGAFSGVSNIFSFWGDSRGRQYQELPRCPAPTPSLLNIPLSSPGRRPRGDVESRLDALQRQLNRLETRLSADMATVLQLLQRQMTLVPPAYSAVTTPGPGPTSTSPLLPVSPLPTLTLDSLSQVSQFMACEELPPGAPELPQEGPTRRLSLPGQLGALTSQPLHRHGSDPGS

[10] = biological target: T2, Microphthalmia-associated transcription factor (Homo sapiens, UniProt O75030); assay: reducers of TRPM1 reporter luminescence, concentration series – cell-based, SK-MEL-5, cherry-picked, set 3, MITF inhibitor project, dose response (AID 493073); format: functional;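 further: SK-MEL-5 melanoma cells with luciferase driven by the MITF target TRPM1 promoter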
T2 sequence (O75030 whole entry): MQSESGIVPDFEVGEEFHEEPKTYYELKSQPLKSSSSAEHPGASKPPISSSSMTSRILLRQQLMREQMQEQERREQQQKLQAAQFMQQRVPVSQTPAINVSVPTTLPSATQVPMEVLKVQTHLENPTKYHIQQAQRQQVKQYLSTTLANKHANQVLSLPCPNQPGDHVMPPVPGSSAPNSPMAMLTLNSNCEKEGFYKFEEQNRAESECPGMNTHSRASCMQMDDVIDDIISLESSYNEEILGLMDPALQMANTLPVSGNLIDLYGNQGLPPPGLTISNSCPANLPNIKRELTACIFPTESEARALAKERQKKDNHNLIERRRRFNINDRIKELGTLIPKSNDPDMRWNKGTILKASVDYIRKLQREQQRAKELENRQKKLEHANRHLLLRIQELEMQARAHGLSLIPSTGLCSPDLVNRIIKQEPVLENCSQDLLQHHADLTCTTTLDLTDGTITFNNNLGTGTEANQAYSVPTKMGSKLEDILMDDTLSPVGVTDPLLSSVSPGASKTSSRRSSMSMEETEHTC

A-375 = assay: MITF: Counter assay: A375 proliferation Measured in Cell-Based System Using Plate Reader - 2084-03_Inhibitor_Dose_DryPowder_Activity. [Related pubchem assays (depositor defined):AID488944]; format: functional; conditions: Homo sapiens
[11] = biological target: T3, DNA repair protein RAD52 homolog (Homo sapiens, UniProt P43351); format: functional, biochemical
T3 sequence (P43351 whole entry): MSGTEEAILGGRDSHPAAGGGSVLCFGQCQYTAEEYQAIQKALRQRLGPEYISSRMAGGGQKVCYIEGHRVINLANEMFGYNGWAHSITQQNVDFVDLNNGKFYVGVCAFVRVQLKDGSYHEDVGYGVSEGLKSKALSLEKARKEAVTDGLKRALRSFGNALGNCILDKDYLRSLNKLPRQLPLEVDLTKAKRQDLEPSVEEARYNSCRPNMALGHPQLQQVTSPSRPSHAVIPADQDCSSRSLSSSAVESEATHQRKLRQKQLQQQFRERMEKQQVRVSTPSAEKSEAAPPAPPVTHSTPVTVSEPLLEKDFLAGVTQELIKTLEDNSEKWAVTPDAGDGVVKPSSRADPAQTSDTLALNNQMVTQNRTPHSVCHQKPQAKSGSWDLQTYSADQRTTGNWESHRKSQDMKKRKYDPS

[12] = Trypanosoma cruzi growth suppression in host cells – NIH3T3 host cells, beta-gal luminescence, confirmation (AID 2044); format: functional, cell-based;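 further: intracellular parasites grown in NIH/3T3 mouse fibroblasts as host cells; luminescent beta-galactosidase reporter signal from transgenic T. cruzi replicating inside host cells; inhibitors lower the luminescence signal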
[13] = NIH3T3 cell viability loss – ATP luminescence, mouse fibroblasts, counter-screen, dose response (AID 2010); format: functional, cell-based;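 further: cells exposed to compound for about 90 hours before reading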
[14] = THP-1 cell cytotoxicity, dose response, cytotoxicity control for non-replicating M. tuberculosis project (AID 489025); format: functional
[15] = HepG2 cell cytotoxicity, dose response, cytotoxicity control for non-replicating M. tuberculosis project (AID 489018); format: functional; conditions: Mycobacterium tuberculosis
Beta-galactosidase = Beta-galactosidase (Escherichia coli, UniProt Q8VNN2); assay: detection-enzyme interference by beta-gal modulators – biochemical, E. coli enzyme, set 3, artefact control for CCR6 antagonist project, dose response (AID 504712); format: functional
Beta-galactosidase, sequence (Q8VNN2 whole entry): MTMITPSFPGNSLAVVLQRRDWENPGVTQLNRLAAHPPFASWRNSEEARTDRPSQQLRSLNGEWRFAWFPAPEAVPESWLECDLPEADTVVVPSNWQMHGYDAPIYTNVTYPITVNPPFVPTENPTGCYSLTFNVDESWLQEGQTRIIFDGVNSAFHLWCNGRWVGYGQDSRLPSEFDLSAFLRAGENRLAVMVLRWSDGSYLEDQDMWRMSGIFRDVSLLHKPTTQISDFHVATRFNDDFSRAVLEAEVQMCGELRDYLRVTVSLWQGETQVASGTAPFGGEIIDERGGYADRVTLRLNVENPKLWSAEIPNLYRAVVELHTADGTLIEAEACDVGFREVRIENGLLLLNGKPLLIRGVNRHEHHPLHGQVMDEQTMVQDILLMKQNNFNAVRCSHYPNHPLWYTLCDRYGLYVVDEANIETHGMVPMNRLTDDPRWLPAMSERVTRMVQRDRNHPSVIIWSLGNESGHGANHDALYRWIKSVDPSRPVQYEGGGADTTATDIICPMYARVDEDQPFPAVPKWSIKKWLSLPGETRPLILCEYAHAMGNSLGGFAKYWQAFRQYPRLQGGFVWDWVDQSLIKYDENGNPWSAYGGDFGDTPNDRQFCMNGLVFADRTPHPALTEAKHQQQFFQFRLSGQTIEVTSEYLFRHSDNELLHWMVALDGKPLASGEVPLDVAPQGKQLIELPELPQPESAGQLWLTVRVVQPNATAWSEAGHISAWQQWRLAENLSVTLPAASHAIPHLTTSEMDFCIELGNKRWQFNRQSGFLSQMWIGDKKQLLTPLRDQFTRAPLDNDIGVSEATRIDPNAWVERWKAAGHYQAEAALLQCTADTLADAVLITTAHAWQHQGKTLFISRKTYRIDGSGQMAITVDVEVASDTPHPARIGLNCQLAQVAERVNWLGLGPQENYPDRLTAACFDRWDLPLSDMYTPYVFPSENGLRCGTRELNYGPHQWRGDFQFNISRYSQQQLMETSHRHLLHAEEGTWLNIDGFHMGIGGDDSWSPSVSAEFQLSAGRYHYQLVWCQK

[16] = Vero E6 cell cytotoxicity, dose response, cytotoxicity control for non-replicating M. tuberculosis project, secondary assay (AID 492998); format: functional, VeroE6; conditions: Vero C1008
cells = format: functional
[17] = biological target: T4, Replicative DNA helicase DnaB (Mycobacterium tuberculosis, UniProt P9WMR3); assay: DnaB intein splicing inhibitors, dose response, biochemical, cell-free fluorescence (AID 449749); format: functional
T4 sequence (P9WMR3 whole entry): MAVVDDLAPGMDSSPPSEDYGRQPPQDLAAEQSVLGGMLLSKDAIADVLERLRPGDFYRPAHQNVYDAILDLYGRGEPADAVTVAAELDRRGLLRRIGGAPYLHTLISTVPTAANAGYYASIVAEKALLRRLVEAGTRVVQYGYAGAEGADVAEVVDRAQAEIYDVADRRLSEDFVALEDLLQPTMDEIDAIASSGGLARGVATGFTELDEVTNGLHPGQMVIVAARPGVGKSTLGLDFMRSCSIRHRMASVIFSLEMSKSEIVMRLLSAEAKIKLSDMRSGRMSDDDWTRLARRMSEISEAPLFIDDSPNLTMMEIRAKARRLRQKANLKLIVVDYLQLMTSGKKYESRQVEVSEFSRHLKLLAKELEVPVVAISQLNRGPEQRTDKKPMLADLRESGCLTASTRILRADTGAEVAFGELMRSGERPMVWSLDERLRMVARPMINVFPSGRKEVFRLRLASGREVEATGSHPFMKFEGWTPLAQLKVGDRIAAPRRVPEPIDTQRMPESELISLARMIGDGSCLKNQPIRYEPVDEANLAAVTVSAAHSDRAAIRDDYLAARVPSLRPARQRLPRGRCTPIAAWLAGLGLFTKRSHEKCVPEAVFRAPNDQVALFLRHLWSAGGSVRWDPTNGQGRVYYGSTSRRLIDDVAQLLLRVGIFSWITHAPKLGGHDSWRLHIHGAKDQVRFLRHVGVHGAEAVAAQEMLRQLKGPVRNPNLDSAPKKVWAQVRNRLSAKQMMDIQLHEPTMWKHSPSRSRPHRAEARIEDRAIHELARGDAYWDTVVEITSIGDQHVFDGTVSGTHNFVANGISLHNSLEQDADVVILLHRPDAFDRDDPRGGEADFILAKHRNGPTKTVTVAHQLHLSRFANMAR

[18] = biological target: Heat shock protein HSP 90-alpha (Homo sapiens, UniProt P07900); format: functional, organism-based
Apelin receptor = Apelin receptor (Homo sapiens, UniProt P35414); assay: apelin receptor antagonists, arrestin read-out – cell-based, luminescent, enzyme-fragment complementation, selectivity assay for CCR6 antagonist project, SAR follow-up (AID 588359); format: functional
Apelin receptor, sequence (P35414 whole entry, the tested form may be a part): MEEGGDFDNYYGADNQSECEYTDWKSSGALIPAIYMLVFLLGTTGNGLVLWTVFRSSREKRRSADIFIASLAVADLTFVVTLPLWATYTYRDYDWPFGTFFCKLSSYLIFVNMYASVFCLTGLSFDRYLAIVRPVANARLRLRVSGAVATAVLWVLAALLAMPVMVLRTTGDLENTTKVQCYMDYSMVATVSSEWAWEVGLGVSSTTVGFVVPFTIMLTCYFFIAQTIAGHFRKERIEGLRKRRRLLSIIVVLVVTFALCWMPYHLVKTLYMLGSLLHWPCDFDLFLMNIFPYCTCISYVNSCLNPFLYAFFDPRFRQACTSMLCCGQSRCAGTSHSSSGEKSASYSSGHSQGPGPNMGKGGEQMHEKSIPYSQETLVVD

Protein RecA = biological target: T5, Protein RecA (Mycobacterium tuberculosis, UniProt P9WHJ3); assay: Fluorescence Cell-Free Homogeneous Dose Retest to Identify Inhibitors of RecA-Intein Splicing Activity. [Related pubchem assays (depositor defined):AID2097, AID2223, AID489010, AID492950]; format: functional
T5 sequence (P9WHJ3 whole entry): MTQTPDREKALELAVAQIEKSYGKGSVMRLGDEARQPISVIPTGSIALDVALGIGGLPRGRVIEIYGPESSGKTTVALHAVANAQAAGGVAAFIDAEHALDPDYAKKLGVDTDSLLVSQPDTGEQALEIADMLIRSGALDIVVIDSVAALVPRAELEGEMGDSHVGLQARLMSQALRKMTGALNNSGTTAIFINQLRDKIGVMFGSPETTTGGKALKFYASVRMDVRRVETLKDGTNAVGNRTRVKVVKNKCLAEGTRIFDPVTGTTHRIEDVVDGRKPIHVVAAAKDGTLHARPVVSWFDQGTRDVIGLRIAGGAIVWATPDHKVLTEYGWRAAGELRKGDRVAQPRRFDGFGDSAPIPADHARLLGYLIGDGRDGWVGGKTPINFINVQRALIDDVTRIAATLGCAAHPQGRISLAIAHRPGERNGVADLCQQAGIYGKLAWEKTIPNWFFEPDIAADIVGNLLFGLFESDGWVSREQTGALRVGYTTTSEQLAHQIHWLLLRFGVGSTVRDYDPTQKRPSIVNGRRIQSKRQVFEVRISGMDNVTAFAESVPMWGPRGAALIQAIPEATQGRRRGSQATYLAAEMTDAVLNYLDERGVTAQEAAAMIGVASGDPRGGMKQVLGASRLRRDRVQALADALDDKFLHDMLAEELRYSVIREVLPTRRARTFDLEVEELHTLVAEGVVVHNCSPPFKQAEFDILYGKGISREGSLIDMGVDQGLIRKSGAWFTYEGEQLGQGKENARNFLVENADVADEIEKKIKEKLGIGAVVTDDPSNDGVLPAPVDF

[19] = biological target: Beta-2 adrenergic receptor (Homo sapiens, UniProt P07550); assay: ADRB2 activation measured by internalization – cell-based, FAP fluorogen, flow cytometry, cherry pick 1, dose response (AID 588763); format: functional
Beta-2 adrenergic receptor, sequence (P07550 whole entry): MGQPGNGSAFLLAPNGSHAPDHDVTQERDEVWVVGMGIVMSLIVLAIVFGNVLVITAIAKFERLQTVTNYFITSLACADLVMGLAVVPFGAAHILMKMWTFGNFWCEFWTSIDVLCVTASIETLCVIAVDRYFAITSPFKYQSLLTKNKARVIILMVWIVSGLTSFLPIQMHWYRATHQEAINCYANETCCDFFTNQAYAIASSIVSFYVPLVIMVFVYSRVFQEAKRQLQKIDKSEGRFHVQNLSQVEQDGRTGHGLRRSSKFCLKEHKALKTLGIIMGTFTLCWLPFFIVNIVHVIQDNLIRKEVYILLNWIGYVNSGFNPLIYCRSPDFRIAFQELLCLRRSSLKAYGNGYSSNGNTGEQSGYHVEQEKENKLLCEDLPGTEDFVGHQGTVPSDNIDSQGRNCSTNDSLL

Escherichia coli = assay: microbe, parasite or virus in culture
[20] = NIH/3T3 cell viability loss – mouse embryonic fibroblasts, dry powder, set 2, cytotoxicity control, dose response (AID 493247); format: functional, cell-based; conditions: Fibroblast
Trypanosoma cruzi = assay: anti-trypanosomal activity in host cells – cell-based, plate reader, dry powder, set 3, dose response (AID 493197); format: functional
[21] = T. cruzi infection blockers in NIH3T3 cells – beta-gal luminescence, NIH3T3 host cells, confirmation (AID 2630); format: functional, cell-based; conditions: Mus musculus
[22] = biological target: Dual specificity protein phosphatase 3 (Homo sapiens, UniProt P51452); assay: SAR VHR1 Fluorescent Assay for In Vitro dose response studies Set 3. [Related pubchem assays (depositor defined):AID1654, AID1661, AID1878]; format: functional
Dual specificity protein phosphatase 3, sequence (P51452 whole entry): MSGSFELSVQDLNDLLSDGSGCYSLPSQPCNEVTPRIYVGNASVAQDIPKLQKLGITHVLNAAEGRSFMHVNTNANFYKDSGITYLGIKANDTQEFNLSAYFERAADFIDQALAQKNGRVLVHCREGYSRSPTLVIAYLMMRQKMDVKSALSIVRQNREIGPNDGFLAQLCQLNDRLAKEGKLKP

SMILES: NC[C@@H]1O[C@H](C23CC4CC(CC(C4)C2)C3)Cc2c1ccc(O)c2O
- EC50 [1]: > 150 µM (inactive)
- EC50 (BJ [2]): 10.3 µM (inconclusive)
- EC50 (BJ [3]): > 150 µM (not active)
- EC50 [4]: 4.44 µM (active)
- EC50 (BJ [5]): 13.7 µM (inconclusive)
- EC50 [6]: 13.1 µM (active)
- IC50 [7]: > 20 µM (inactive)
- EC50 (Mu-type opioid receptor): 92.4 µM (inactive)
- EC50 [8]: 1.2 µM (active)
- AC50 [9]: 22.4 µM (inconclusive)

SMILES: CN1CCC(N(C)C(=O)/C=C/c2cn(-c3ccccc3)nc2-c2cccs2)CC1
- IC50 [7]: > 20 µM (inactive)
- AC50 [10]: 9.82 µM (active)
- AC50 (A-375): 30.5 µM (active)
- AC50 [11]: 12.2 µM (active)

SMILES: O=[N+]([O-])c1ccc(S(=O)(=O)c2cccc(C(F)(F)F)c2)nc1
- EC50 (BJ [2]): 2.55 µM (inconclusive)
- EC50 (BJ [3]): 12.1 µM (inconclusive)
- EC50 [12]: 0.913 µM (active)
- EC50 [13]: 2.06 µM (active)
- EC50 (BJ [5]): 10.8 µM (inconclusive)
- EC50 [6]: 6.52 µM (active)
- CC50 [14]: 28.8 µM (active)
- CC50 [15]: > 20 µM (active)
- IC50 (Beta-galactosidase): > 66.6 µM (inactive)
- CC50 [16]: 14.8 µM (active)
- IC50 (cells): 3.47 µM (active)
- AC50 [17]: > 380 µM (inactive)
- AC50 [18]: 1.84 µM (active)
- IC50 (Apelin receptor): 18.8 µM (active)
- EC50 (Protein RecA): 14.2 µM (active)
- EC50 [19]: 7.62 µM (inactive)

SMILES: COC(=O)c1cnc(NNS(=O)(=O)c2ccc(C(F)(F)F)cc2)nc1C(F)(F)F
- AC50 (Escherichia coli): > 380 µM (inactive)

SMILES: CN(Cc1ccccc1)C(=O)C1CCCN(Cc2ccccc2C(F)(F)F)C1 (stereo not given)
- AC50 [20]: 63.3 µM (active)
- AC50 (Trypanosoma cruzi): 15.9 µM (active)
- EC50 [21]: 4.64 µM (active)

SMILES: CCOc1cccc2sc(NC(=O)c3ccc(OC)cc3)nc12
- IC50 [22]: 51.7 µM (active)
